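Interpolation was linear, between the two tested concentrations surrounding the appropriate level; five concentrations were tested over 48 hours in 96-well plates. Here, GI50 denotes the concentration required for 50% inhibition of growth.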 The source made the active and inactive calls. Rule as the data show it: active = GI50 up to about 1.1 µM and inactive = higher.

What all share (test): NCI tumour cell line growth inhibition, 48 h
The subject of test [1] is CAKI-1.
The test system of test [2] is SK-OV-3.
Test [3] relates to SN12C.
Test [4] deals with Hs-578T.
Test [5] concerns HCC 2998.
Test [6] has as its system HCT-15.
Test [7] concerns OVCAR-5.
Test [8] deals with UACC-257.
The subject of test [9] is OVCAR-8.
Test [10] relates to MOLT-4.
Test [11] concerns SF-268.
Test [12] deals with HL-60.
The test system of test [13] is CCRF-CEM.
Test [14] has as its system LOX IMVI.
Test [15] relates to HOP-62.
Test [16] relates to T47D.
For test [17], the system named is SK-MEL-28.
Test [18] deals with SF-539.
For test [19], the system named is SR.

For the compound `Cc1ccc(S(=O)ON2CCC(C(=O)O)(c3ccccc3)CC2)cc1` (stereo not drawn), the GI50 in test [1] was > 100 µM (inactive); in test [2], > 100 µM (inactive); in test [3], > 100 µM (inactive); in [4], > 100 µM (inactive); in test [5], > 100 µM (inactive); in test [6] it was > 100 µM. Also, the GI50 in test [7], in test [8], in test [9], in test [10], in test [11] and in test [12] was > 100 µM (inactive) throughout. Besides, the GI50 in test [13], in [14], in test [15], in [16] and in test [17] was > 100 µM (inactive) in each case.

Consider `NCCC(=O)NC(Cc1c[nH]cn1)C(=O)O` (stereo not drawn), for which the GI50 in test [1] is > 100 µM (inactive); in test [18], > 100 µM (inactive); in [3], > 100 µM (inactive); in test [4] it was > 100 µM (inactive); in test [5], > 100 µM (inactive); in test [6], > 100 µM. Moreover, the GI50 in [7], in [8], in test [9], in test [10], in [11] and in [12] was > 100 µM (inactive) in each case. Moreover, the GI50 in [13], in [14], in test [15], in test [16] and in test [17] was > 100 µM (inactive) each time.

Regarding `CCCCNC(=O)Cn1c2ccc(Br)cc2c2nc3ccccc3nc21`, the GI50 is 57.3 µM (inactive) in [1]; 84.3 µM (inactive) in test [3]; > 100 µM (inactive) in [4]; > 100 µM (inactive) in test [7]; 0.589 µM (active) in [19]; > 100 µM (inactive) in test [8]. The GI50 was 33.3 µM (inactive) in [9]; > 100 µM (inactive) in test [10]; 97.1 µM (inactive) in test [11]; > 100 µM (inactive) in [13]; > 100 µM (inactive) in [14]; 58.1 µM (inactive) in test [15]. Moreover, the GI50 in test [16] is 93.8 µM (inactive); in test [17], > 100 µM (inactive).

In the case of `Cc1ccc(S(=O)(=O)c2scc(-c3ccccc3)c2C)cc1`, the GI50 in test [1] is > 100 µM (inactive); in test [18] it was 61 µM (inactive); in test [2] it was > 100 µM (inactive); in test [3], > 100 µM (inactive); in [4], > 100 µM (inactive); in test [5], > 100 µM (inactive). Moreover, the GI50 is > 100 µM in test [6]; 74 µM (inactive) in test [8]; > 100 µM (inactive) in [9]; 42.7 µM (inactive) in test [10]; > 100 µM (inactive) in test [11]; 45 µM (inactive) in test [12]. In addition, the GI50 is 64.3 µM (inactive) in [14], > 100 µM (inactive) in test [15], 36.5 µM (inactive) in test [16] and > 100 µM (inactive) in test [17].

For the compound `Cc1cc(-n2nnc(C(=O)O)c2-c2ccccc2)c2ccc(Cl)cc2n1`, the GI50 in test [1], in test [18], in [2], in test [3], in test [4] and in test [5] was > 100 µM (inactive) throughout. Moreover, the GI50 in test [6] is > 100 µM; in [7], > 100 µM (inactive); in [8], > 100 µM (inactive); in test [9] it was > 100 µM (inactive); in [10], 17.5 µM (inactive); in test [11] it was > 100 µM (inactive). For the same compound, the GI50 in test [12], in test [13], in test [14], in test [16] and in test [17] was > 100 µM (inactive) in each case.

In the case of `COC(CNC(=O)C(C)NC(=O)C(C)NC(=O)c1ccccc1)OC` (stereo not drawn), the GI50 in test [1] is > 100 µM (inactive); in test [18], > 100 µM (inactive); in test [2], > 100 µM (inactive); in [3], > 100 µM (inactive); in test [4] it was > 100 µM (inactive); in test [6], > 100 µM. In addition, the GI50 in test [7], in test [19], in [8], in [9], in test [10] and in [11] was > 100 µM (inactive) in each case. Further, the GI50 in test [13] and in test [16] was > 100 µM (inactive) each time.

`CNNC1=NS(=O)(=O)c2cc(C(=O)OC)c(Cl)cc2S1`: the GI50 in test [1], in test [18], in test [2], in test [3], in [4] and in [5] was > 10 µM (inactive) throughout. Besides, the GI50 was > 10 µM in [6]; > 10 µM (inactive) in test [7]; > 10 µM (inactive) in test [8]; > 10 µM (inactive) in [9]; > 10 µM (inactive) in [10]; > 10 µM (inactive) in test [11]. Moreover, the GI50 in test [12], in test [13], in [14], in test [15], in test [16] and in test [17] was > 10 µM (inactive) throughout.

In the case of `O=C(CC(C(=O)c1cccs1)c1ccccc1)c1ccccc1O` (stereo not drawn), the GI50 in test [1] was 8.95 µM (inactive); in test [18] it was 34.1 µM (inactive); in test [2], 8.57 µM (inactive); in [3], > 20.7 µM (inactive); in test [4] it was 5.81 µM (inactive); in test [6] it was 8 µM. Moreover, the GI50 in test [7] is > 100 µM (inactive); in [19], 9.27 µM (inactive); in [8] it was > 30.7 µM (inactive); in test [9], 9.62 µM (inactive); in [10], 7.08 µM (inactive); in [11] it was 8.28 µM (inactive). Also, the GI50 is 2.55 µM (inactive) in test [13]; 12.4 µM (inactive) in [14]; 18.2 µM (inactive) in test [15]; 9.66 µM (inactive) in [16]; 20 µM (inactive) in test [17].

On to `CC12CC(OC(=O)[C@]1(C)O)[C@@H]([C@]1(O)CC[C@H]3[C@@H]4C[C@H]5O[C@]56[C@@H](O)C=CC(=O)[C@]6(C)[C@H]4CC[C@@]31C)C2` (stereo partly drawn), for which the GI50 in test [1] was 9.59 µM (inactive); in [18], 2.78 µM (inactive); in test [2], 34.1 µM (inactive); in test [3], 6.19 µM (inactive); in test [4] it was 6.71 µM (inactive); in test [5], 16.2 µM (inactive). The GI50 in [6] is 7.33 µM; in [7], 11 µM (inactive); in test [8] it was 7 µM (inactive); in test [9], 3.37 µM (inactive); in [10], 2.54 µM (inactive); in [11], 5.41 µM (inactive). Also, the GI50 in test [12] is < 0.01 µM (active); in [13], 1.33 µM (inactive); in test [14], 4.42 µM (inactive); in test [15] it was 28.9 µM (inactive); in [16] it was 8.02 µM (inactive); in test [17], 11.7 µM (inactive).

These data come from ChEMBL document CHEMBL1201862, “PubChem BioAssay data set” (2004).
